The test system of one experiment is Tyrosinase. The experiment can be described thus: High pressure experiments, tyrosinase. Format: biochemical, Mushroom. The following applies: for % inhibition of gases relative to 1 atmosphere of air: value before the slash (not pressurized). As for the experimental part:
Shake the enzyme in each cylinder for several minutes and then remove a 5 ml sample for Control B and Control C. Remove cylinders to the dock, gassing with the appropriate gas; bring pressure slowly up to 30.6 atm. Let sit at the required pressure for 60 minutes. Slowly depressurize to 2 psi before bringing into the lab. Bring the cylinders back to the dock and repressurize to 100 atm with the appropriate gas. Let sit at the required pressure for 60 minutes. Slowly depressurize to 2 psi before bringing into the lab. […] Shake the enzyme in each cylinder for several minutes and then remove a 5 ml sample for Control B and Control C. Remove cylinders to the dock, gassing with the appropriate gas. Remove headspace/residual gas by pressurizing and depressurizing the gas cylinder several times. Bring pressure slowly up to 30.6 atm. Let sit at the required pressure for 60 minutes. Slowly depressurize to 40 psi before bringing into the lab. Enzyme injection: […] The cylinders were pressurized as described above. The cylinder pressure was released and the cylinders repressurized 10 times to remove O2 from the cylinders. Final Pressurization: […] Cylinder 3 was pressurized to 1 atm with Xe then pressurized to 30.6 atm with N2 to conserve Xe. Time Table: […] Due to the fact that on 4/25/91 the spectrophotometers were being used at 5° C. for a different experiment the decision was made to sample the cylinders at the end of the day when the spectrophotometer was available to be put at 25° C. Sampling took place 28 hours after pressurization. A spectro/gas run was immediately preformed on these samples. Apr. 25, 1991 Repressurization: Cylinders were repressurized at 6:00 pm on 4/25/91 to 100 atm. These cylinders will be sampled at 2:00 pm Apr. 26, 1991 (20 hrs after pressurization). Cuvettes were filled for the 2 atm experiments for both enzymes. Each cuvette was gassed 10×10 cc with the appropriate gas and refrigerated for 15 minutes prior to running. Serum vials were filled with 5 cc of the corresponding enzyme and gassed with 10×10 cc of the appropriate gas prior to running. The spectrophotometers were set up such that a continuous flow of each gas could be delivered to each spectro at all times. A 100 […] gauge was installed to read the cuvette pressure and 2 on/off valves were installed so that the reference cell could be pressurized during the second replicate. A ball valve was installed between the cylinder/house line and the gauge so that gas flow could be controlled directly at the spectrophotometers. A check valve was placed in each line to ensure that a back pressure would not cause contamination of the house lines or the gas cylinders. The cuvettes retained the 2 needles during the entire run. One of the needles was attached to the gas line while the second was used for enzyme introduction and then plugged. Due to the bulky nature of the assembly it was impossible to use the installed doors of the spectrophotometers therefore they were removed. A 4-layer thick black felt cover was prepared for each spectro to minimize the amount of light entering the system. While the cuvette was equilibrating to temperature in the spectrophotometer both needles remained in the cuvette with 10 cc syringes still attached. Prior to enzyme introduction one of the syringes was removed while the gas line was attached to the needle. A small flow of gas run through the line while this was done to ensure that there was no oxygen contamination. The needles remained above the liquid level. The second syringe was removed to allow constant flow through the cuvette. The enzyme was injected through the second needle using a 1 cc syringe. The needle was then plugged, the cuvette pressurized and the run begun. A nonpressurized gas run using all four gases was done for each enzyme. Each cuvette was gassed with 10×10 cc of the corresponding gas and refrigerated for 15 minutes. The 2 needles used for gassing the cuvettes were removed when the cuvettes were placed into the spectrophotometer. […]

The subject of experiment [1] is phenylalanine ammonia lyase. The experiment can be described thus: Phenylalanine ammonia lyase activity under gas. It is filed as biochemical. The following applies: for effect on phenylalanine ammonia lyase: head not printed; for effect on phenylalanine ammonia-lyase: FIG. 32. As for the experimental part:
(§1) Solution preparation: Optimized w/v solutions are prepared by diluting the enzyme (units/ml) and the substrate (μg/ml) in appropriate buffer (optimized pH and molarity for enzymes). The solutions are used for gas experiments at once to avoid loss of activity. Various enzyme and substrate concentrations and inhibitors may be employed. Physical parameters are varied as required.
(§2) Preparation of samples: Cuvets are filled with 2 ml of substrate solution by means of a gas-tight syringe. Gas-tight serum vials are filled with enzyme and solvent. Sufficient gas is consecutively bubbled in the cuvets and serum vials, with a 1-hr wait between injections to maximize equilibration of gas. All syringes and dead spaces are purged before filling with the appropriate gas. The amount of gas used has been measured sufficient to saturate the solution required.
(§3) Spectrophotometric time-drive, reaction rate, and kinetic analyses: cuvets and serum vials are saturated with gas 40 minutes before the run. A gas-filled syringe is used to retrieve 0.5 ml of enzyme solution to avoid air contact. The 0.5 ml syringe injections of enzyme are made simultaneously to effect a common starting time to for the samples. 7 gases (air, O2, N2, Ne, Ar, Kr, Xe) are run at various temperatures each (from 0° to 60° ). Changes in the rate or final equilibrium of the reaction versus ambient air are recorded. Comparison is also made with added oxygen, and with deoxygenation. Some samples are also prepared under pressure.
In a complete experiment, an enzyme at optimal pH and buffering salt concentration is reacted with 5 substrate concentrations in solution with noble gas at 1 atm. […] Controls are also run after evacuation of solution by vacuum. The reaction is monitored colorimetrically in a scanning spectrophotometer in real time, and the signals are treated mathematically to obtain rate and yield differences. Sample numbers are constant and sufficient to ensure significance of results. All parameters are independently controlled and measured, and more complex experiments are occasionally carried out.

The subject of a further experiment is hydrolases. The experiment can be described thus: Hydrolases, effects for the class. It is filed as biochemical. As for the experimental part:
as §1
(§4) Preparation of samples: Cuvets are filled with 2 ml of substrate solution by means of a gas-tight syringe. Gas-tight serum vials are filled with enzyme and solvent. Sufficient gas is consecutively bubbled in the cuvets and serum vials, with a 1-hr wait between injections to maximize equilibration of gas. […] The amount of gas used has been measured sufficient to saturate the solution required.
(§5) Spectrophotometric time-drive, reaction rate, and kinetic analyses: cuvets and serum vials are saturated with gas 40 minutes before the run. […] Changes in the rate or final equilibrium of the reaction versus ambient air are recorded. […]
(§6) In a complete experiment, an enzyme at optimal pH and buffering salt concentration is reacted with 5 substrate concentrations in solution with noble gas at 1 atm. […] The reaction is monitored colorimetrically in a scanning spectrophotometer in real time, and the signals are treated mathematically to obtain rate and yield differences. […]

The test system of experiment [2] is Aspartate aminotransferase. The experiment can be described thus: Aspartate aminotransferase activity under gas. It is filed as biochemical. The following applies: for effect on aspartate aminotransferase: FIG. 30; for effect: minus = inhibition. As for the experimental part: as §1, §2, §3
A further experiment has as its system transferase enzymes. The experiment can be described thus: Transferases, effects for the class. It is filed as biochemical. As for the experimental part: as §1, §4, §5, §6
In a further experiment the test system is lyase enzymes. The experiment can be described thus: Lyases, effects for the class. Format: biochemical. As for the experimental part: as §1, §4, §5, §6
The subject of another experiment is lactate dehydrogenase. The experiment can be described thus: Lactate dehydrogenase activity under gas. It is filed as biochemical. The following applies: 10° C., FIG. 42. As for the experimental part: Solution preparation: Optimized w/v solutions are prepared by diluting the enzyme (units/ml) and the substrate (μg/ml) in appropriate buffer (optimized pH and molarity for enzymes). The solutions are used for gas experiments at once to avoid loss of activity. Various enzyme and substrate concentrations and inhibitors may be employed. Physical parameters are varied as required. […] Gas-tight serum vials are filled with enzyme and solvent. Sufficient gas is consecutively bubbled in the cuvets and serum vials, with a 1-hr wait between injections to maximize equilibration of gas. All syringes and dead spaces are purged before filling with the appropriate gas. The amount of gas used has been measured sufficient to saturate the solution required. Spectrophotometric time-drive, reaction rate, and kinetic analyses: cuvets and serum vials are saturated with gas 40 minutes before the run. A gas-filled syringe is used to retrieve 0.5 ml of enzyme solution to avoid air contact. […] Changes in the rate or final equilibrium of the reaction versus ambient air are recorded. Comparison is also made with added oxygen, and with deoxygenation. Some samples are also prepared under pressure.

Setting [3] is: optimized enzyme concentration, first value column.
Where [4] appears, read: optimized enzyme concentration, second value column.
[5] abbreviates: optimized enzyme concentration, third value column.
Setting [6] is: suboptimal enzyme concen., first value column.
Where [7] appears, read: suboptimal enzyme concen., second value column.
Setting [8] is: suboptimal enzyme concen., third value column.
Where [9] appears, read: 30.6 atm (24 hr), Xe = Xe 1 atm/N2 to pressure.
[10] abbreviates: 100 atm (~24 hr), Xe = Xe 1 atm/N2 to pressure.

The values that follow come from patent US5462861A, “Method for improving enzyme activities with noble gases” (American Air Liquide, Chicago Research Center, priority 1993, dated 1995).

Regarding `[Kr]` [Kr, krypton], the “inhibition relative to 1 atmosphere after pressurization” value (from here on “inhibition relative to 1 atmosphere”) in the experiment with Tyrosinase (2 atm) is on record as -93.1%. The “% inhibition of gases relative to 1 atmosphere of air” value in the experiment with Tyrosinase (2 atm experiment) is -84.5%. The “effect on phenylalanine ammonia lyase” value in experiment [1] (setting [3]) is given as “+7”; in experiment [1] (setting [4]), “+4”; in experiment [1] (setting [5]) it was “+4”; in experiment [1] (setting [6]) it was “+3”; in experiment [1] (setting [7]), “+18”; in experiment [1] (setting [8]) it was “+14”. Also, the effect on hydrolases result in the experiment on hydrolases is “least such effect”. The “effect on aspartate aminotransferase” value in experiment [2] is reported as “inhibition”. In addition, the effect in experiment [2] was -82%. In addition, the effect on transferases result with transferase enzymes is “largest inhibitory or effect”.

As for `[Ar]` [Ar, argon], the “inhibition relative to 1 atmosphere” value with Tyrosinase (2 atm) was -90.4%; with Tyrosinase (3 atm) it was -72.1%. Moreover, the “% inhibition of gases relative to 1 atmosphere of air” value is recorded as -76.9% in the experiment with Tyrosinase (2 atm experiment) and -55.8% with Tyrosinase (3 atm experiment). In addition, the “effect on phenylalanine ammonia lyase” value is “+6” in experiment [1] (setting [3]); “+1” in experiment [1] (setting [4]); “+3” in experiment [1] (setting [5]); -1 in experiment [1] (setting [6]); “+1” in experiment [1] (setting [7]); “+6.5” in experiment [1] (setting [8]). In experiment [2], the “effect on aspartate aminotransferase” value is listed as “inhibition”. Further, the effect in experiment [2] is listed as -17%. The effect on lyases entry in the experiment on lyase enzymes is given as “least such effect”.

With `N#N` [N2, nitrogen, reference compound], the “inhibition relative to 1 atmosphere” value with Tyrosinase (2 atm) was -88.5%; with Tyrosinase (3 atm), -82.6%; in the experiment on Tyrosinase (30.6 atm (1 hr)), -15.4%; with Tyrosinase (setting [9]), -78.8%; with Tyrosinase (100 atm (1 hr)), -20.0%; with Tyrosinase (setting [10]), -84.7%. The “% inhibition of gases relative to 1 atmosphere of air” value with Tyrosinase (2 atm experiment) is -71.2%; in the experiment with Tyrosinase (3 atm experiment) it was -72.1%. In addition, the effect on tyrosinase entry with Tyrosinase (30 atm. pressure, FIG. 39) is on record as “inhibitory effect”; in the experiment with Tyrosinase (100 atm. pressure, FIG. 40), “inhibitory effect”. For the same compound, in experiment [1], the “effect on phenylalanine ammonia-lyase” value is reported as “enhancement”. Further, the “effect on phenylalanine ammonia lyase” value in experiment [1] (setting [3]) is reported as “+19”; in experiment [1] (setting [4]) it was 0; in experiment [1] (setting [5]), “+6”; in experiment [1] (setting [6]), 0; in experiment [1] (setting [7]) it was 0; in experiment [1] (setting [8]), “+12”.

Turning to `[Ne]` [Ne, neon], the “inhibition relative to 1 atmosphere” value in the experiment on Tyrosinase (2 atm) was -84.5%. In addition, in the experiment on Tyrosinase (2 atm experiment), the “% inhibition of gases relative to 1 atmosphere of air” value is reported as -69.0%. For the same compound, the “effect on phenylalanine ammonia-lyase” value in experiment [1] is “enhancement”. For the same compound, the “effect on phenylalanine ammonia lyase” value is -2 in experiment [1] (setting [3]); “+6” in experiment [1] (setting [4]); -6 in experiment [1] (setting [5]); “+15” in experiment [1] (setting [6]); 0 in experiment [1] (setting [7]); “+6” in experiment [1] (setting [8]). Moreover, in the experiment with lactate dehydrogenase, the “effect on lactate dehydrogenase” value is recorded as “inhibiting”. Further, the effect in experiment [2] is reported as -12%. For the same compound, the effect on transferases result with transferase enzymes is reported as “lowest inhibitory or enhancing effect”.

In the case of `[Xe]` [Xe, xenon], the results for the “inhibition relative to 1 atmosphere” value with Tyrosinase (2 atm), with Tyrosinase (setting [9]) and in the experiment with Tyrosinase (setting [10]) were -86.2%, -87.0% and -85.7%, respectively. The “% inhibition of gases relative to 1 atmosphere of air” value in the experiment with Tyrosinase (2 atm experiment) was -76.0%. Also, the effect on tyrosinase result with Tyrosinase (30 atm. pressure, FIG. 39) is recorded as “inhibitory effect”; with Tyrosinase (100 atm. pressure, FIG. 40) it was “inhibitory effect”. Further, the “change in relative effect” value in the experiment on Tyrosinase (effect of pressure) came out at 75%. Moreover, the “effect on phenylalanine ammonia lyase” value in experiment [1] (setting [3]) is recorded as “+18”; in experiment [1] (setting [4]) it was “+3”; in experiment [1] (setting [5]), “+5”; in experiment [1] (setting [6]), “+14”; in experiment [1] (setting [7]) it was “+8”; in experiment [1] (setting [8]), “+11”. Further, in the experiment on hydrolases, the effect on hydrolases result is recorded as “largest enhancing effect”. In addition, in the experiment on lactate dehydrogenase, the “effect on lactate dehydrogenase” value is given as “enhancing”. The “effect on aspartate aminotransferase” value in experiment [2] was “inhibition”. Further, in experiment [2], the effect is reported as -17%. Also, in the experiment with lyase enzymes, the effect on lyases result is recorded as “largest enhancing effect”.
